Data reported in PubChem BioAssay (NCI).
Where “and” joins values, the source holds several entries; their conditions need not be identical. Equal entries are not always repeated.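 Cultured in 96-well plates, cells were exposed to test compound for 48 hours across five concentrations. GI50 marks 50% less growth. Definition used: TGI = concentration required for complete inhibition of growth.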

Tests used:
Assay in all cases: growth of human tumour cells (NCI), 48 h
[1] = system: MDA-MB-435
[2] = system: SNB-75 CNS
[3] = system: MOLT-4 leukemia
[4] = system: RPMI-8226 leukemia
[5] = system: SW-620 colon
[6] = system: RXF 393 renal
[7] = system: U251 CNS
[8] = system: A498 renal
[9] = system: SK-MEL-2 melanoma
[10] = system: UO-31 renal

| Compound | GI50 [1] | TGI [1] | GI50 [2] | TGI [2] | GI50 [3] | TGI [3] | GI50 [4] | TGI [4] | GI50 [5] | TGI [5] | GI50 [6] | TGI [6] | GI50 [7] | TGI [7] | GI50 [8] | TGI [8] | GI50 [9] | TGI [9] | GI50 [10] | TGI [10] |
| --- | --- | --- | --- | --- | --- | --- | --- | --- | --- | --- | --- | --- | --- | --- | --- | --- | --- | --- | --- | --- |
| O=C(NCCN1CCOCC1)c1cc2c(Oc3ccc(NC(=O)C4(C(=O)Nc5ccc(F)cc5)CC4)cc3)ccnc2[nH]1 | 3220 nM | 23.3 µM | 893 nM | 9.64 µM | 3.48 µM | > 100 µM | 9450 nM | 42.2 µM | 15300 nM | > 100 µM | 1840 nM | 19.8 µM | 7870 nM | 34.5 µM | 833 nM | 11.8 µM | 9.19 µM | 22.9 µM | 1150 nM | > 32.9 µM |
| C=C(CN1CCN(c2cc(C(F)(F)F)cc(C(F)(F)F)c2)CC1)c1ccc(C(=O)Nc2ccccc2N)cc1 | 1840 nM | 4.88 µM | 3440 nM | 18.5 µM | – | – | 1650 nM | 4.22 µM | 6950 nM | 34.9 µM | 2020 nM | 7.71 µM | 10100 nM | > 100 µM | 2040 nM | 14.4 µM | 10.2 µM | > 100 µM | 5570 nM | > 100 µM |
| COc1cccc(/C=C\C(=O)c2ccccc2)c1 | 11900 nM | 27.8 µM | 8900 nM | 23 µM | 6.1 µM | > 100 µM | 16200 nM | > 100 µM | 2700 nM | 7.31 µM | 2460 nM | 5.34 µM | 2770 nM | 14.1 µM | 11400 nM | 26.2 µM | 18 µM | 34.8 µM | 2180 nM | 5.96 µM |
| COc1cc2c(cc1O)CCN[C@@]21CS[C@H]2c3c(OC(C)=O)c(C)c4c(c3C(COC1=O)N1C2C2NC(Cc3cc(C)c(OC)c(O)c32)[C@@H]1O)OCO4 (stereo partly drawn) | – | < 0.01 µM | 4.5 ng/mL | – | 4.5 ng/mL | – | – | > 100 µM and 6.4e-07 µg/mL | 4.5 ng/mL | 7.33 µM and 4.98 µg/mL | 4.5 ng/mL | < 10 nM and 1.9e-07 µg/mL and 0.0045 µg/mL | 4.5 ng/mL | < 10 nM and 0.28 µg/mL | – | < 10 nM and 6.8e-07 µg/mL and 0.0045 µg/mL | 4.5 ng/mL | < 10 nM and 0.0045 µg/mL | 0.0108 µg/mL | 21.3 nM and 0.255 µg/mL |
| CC[C@H](C)[C@H](NC(=O)CN(C)C)C(=O)N(C)[C@H](C[C@@H](OC(C)=O)c1nc(C(=O)NC23C4C5C2C2C3C4C52C(=O)OC)cs1)C(C)C (stereo partly drawn) | 40.9 nM | 1.07 µM | 119 nM | > 33.2 µM | 0.252 µM | > 33.2 µM | 115 nM | > 11.4 µM | 226 nM | > 33.2 µM | 387 nM | > 33.2 µM | 800 nM | > 33.2 µM | 993 nM | 21.5 µM | 0.838 µM | > 33.2 µM | 3600 nM | > 33.2 µM |
| COc1ccc(/C(=C(\c2ccccc2)[N+](=O)[O-])c2ccc(OCCN3CCCC3)cc2)cc1 | 2850 nM | 10.5 µM | 2240 nM | 8.17 µM | 2.65 µM | 10.5 µM | 2530 nM | 10.6 µM | 1740 nM | 4.19 µM | 1650 nM | 3.76 µM | 2840 nM | 12.6 µM | 2190 nM | 10.9 µM | 2.06 µM | 5.06 µM | 1120 nM | 4.2 µM |
